Assay results reported in article PMC4995014, “Identification of ABC Transporter Interaction of a Novel Cyanoquinoline Radiotracer and Implications for Tumour Imaging by Positron Emission Tomography” (PLoS ONE, 2016).

Key:
[1] = molecular target: T1, EGFR L858R/T790M (H1975 cells) (Homo sapiens, UniProt P00533, L858R/T790M); test: Inhibition of EGFR autophosphorylation (p-EGFR Y1068, western blot) in H1975 cells; format: cell-based; conditions: 3 h incubation, densitometry of western blots
T1 construct: host or cells: H1975
T1 sequence (P00533 25-1210 T790M/L858R): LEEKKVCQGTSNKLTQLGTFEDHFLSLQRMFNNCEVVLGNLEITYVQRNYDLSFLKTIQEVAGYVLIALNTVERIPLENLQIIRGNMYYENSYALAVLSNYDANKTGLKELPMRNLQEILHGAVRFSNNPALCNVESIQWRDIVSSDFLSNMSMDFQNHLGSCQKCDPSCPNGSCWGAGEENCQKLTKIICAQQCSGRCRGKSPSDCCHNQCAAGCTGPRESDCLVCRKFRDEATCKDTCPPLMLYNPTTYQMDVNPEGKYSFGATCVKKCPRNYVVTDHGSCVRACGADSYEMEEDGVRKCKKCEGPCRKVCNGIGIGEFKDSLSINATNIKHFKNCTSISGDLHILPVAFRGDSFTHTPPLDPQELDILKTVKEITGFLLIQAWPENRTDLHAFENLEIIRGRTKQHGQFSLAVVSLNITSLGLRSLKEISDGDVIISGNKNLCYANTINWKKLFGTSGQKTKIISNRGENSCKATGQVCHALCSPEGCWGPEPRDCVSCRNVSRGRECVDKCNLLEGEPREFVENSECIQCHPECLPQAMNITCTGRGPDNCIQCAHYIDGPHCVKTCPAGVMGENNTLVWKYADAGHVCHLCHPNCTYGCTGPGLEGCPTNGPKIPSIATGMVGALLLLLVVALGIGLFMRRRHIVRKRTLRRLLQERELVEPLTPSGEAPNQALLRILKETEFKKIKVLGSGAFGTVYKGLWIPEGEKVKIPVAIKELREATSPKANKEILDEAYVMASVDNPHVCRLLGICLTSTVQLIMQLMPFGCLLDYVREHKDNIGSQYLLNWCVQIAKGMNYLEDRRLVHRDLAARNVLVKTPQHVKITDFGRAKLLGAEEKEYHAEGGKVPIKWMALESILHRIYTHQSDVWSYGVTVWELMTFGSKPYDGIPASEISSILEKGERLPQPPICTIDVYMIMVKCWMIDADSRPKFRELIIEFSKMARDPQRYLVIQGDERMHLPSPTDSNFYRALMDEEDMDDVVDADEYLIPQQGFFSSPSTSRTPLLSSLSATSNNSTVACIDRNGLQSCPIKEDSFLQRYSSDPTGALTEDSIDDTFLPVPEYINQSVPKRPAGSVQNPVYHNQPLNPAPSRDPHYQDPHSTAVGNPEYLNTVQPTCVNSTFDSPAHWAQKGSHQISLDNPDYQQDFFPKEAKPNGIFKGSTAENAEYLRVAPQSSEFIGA
Experimental: (§1) Affinity of the cyanoquinolines for EGFR was established by measuring their inhibition of EGFR autophosphorylation via western blot. Cells were seeded in 6 well plates and following 24 h of growth, were subject to overnight serum starvation. The cells were then treated with increasing concentrations of cyanoquinolines prepared in serum free growth media from a DMSO stock (final DMSO concentration < 1%) for 3 h at 37°C, and stimulated for receptor autophosphorylation by addition of 100 ng/mL of EGF during the last 15 minutes of drug incubation. After 3 h the cells were placed on ice, media removed and then the cells were washed two times with ice cold phosphate buffered saline (PBS). Lysates were analysed by western blot to measure changes to p-EGFR Y1068.
(§2) Cells were collected into a microcentrifuge tube and sonicated for 30 seconds on ice. Cellular protein levels were assessed using a bicinchoninic acid (BCA) protein assay kit according to the manufacturer’s instructions (Thermo scientific). […] Samples were transferred to polyvinylidene difluoride (PVDF) membrane using Trans-Blot Turbo system BIO-RAD (Hercules, California, USA). […] The membranes were then incubated overnight with primary antibody prepared in 1% milk or 1% BSA in TBST. […] Membranes were washed a further three times for 10 minutes with TBST. […]

EGFR L858R (H3255 cells) = molecular target: T2, EGFR L858R (H3255 cells) (Homo sapiens, UniProt P00533, L858R); test: Inhibition of EGFR autophosphorylation (p-EGFR Y1068, western blot) in H3255 cells; format: cell-based; conditions: 3 h incubation, densitometry of western blots
T2 construct: host or cells: H3255
T2 sequence (P00533 25-1210 L858R): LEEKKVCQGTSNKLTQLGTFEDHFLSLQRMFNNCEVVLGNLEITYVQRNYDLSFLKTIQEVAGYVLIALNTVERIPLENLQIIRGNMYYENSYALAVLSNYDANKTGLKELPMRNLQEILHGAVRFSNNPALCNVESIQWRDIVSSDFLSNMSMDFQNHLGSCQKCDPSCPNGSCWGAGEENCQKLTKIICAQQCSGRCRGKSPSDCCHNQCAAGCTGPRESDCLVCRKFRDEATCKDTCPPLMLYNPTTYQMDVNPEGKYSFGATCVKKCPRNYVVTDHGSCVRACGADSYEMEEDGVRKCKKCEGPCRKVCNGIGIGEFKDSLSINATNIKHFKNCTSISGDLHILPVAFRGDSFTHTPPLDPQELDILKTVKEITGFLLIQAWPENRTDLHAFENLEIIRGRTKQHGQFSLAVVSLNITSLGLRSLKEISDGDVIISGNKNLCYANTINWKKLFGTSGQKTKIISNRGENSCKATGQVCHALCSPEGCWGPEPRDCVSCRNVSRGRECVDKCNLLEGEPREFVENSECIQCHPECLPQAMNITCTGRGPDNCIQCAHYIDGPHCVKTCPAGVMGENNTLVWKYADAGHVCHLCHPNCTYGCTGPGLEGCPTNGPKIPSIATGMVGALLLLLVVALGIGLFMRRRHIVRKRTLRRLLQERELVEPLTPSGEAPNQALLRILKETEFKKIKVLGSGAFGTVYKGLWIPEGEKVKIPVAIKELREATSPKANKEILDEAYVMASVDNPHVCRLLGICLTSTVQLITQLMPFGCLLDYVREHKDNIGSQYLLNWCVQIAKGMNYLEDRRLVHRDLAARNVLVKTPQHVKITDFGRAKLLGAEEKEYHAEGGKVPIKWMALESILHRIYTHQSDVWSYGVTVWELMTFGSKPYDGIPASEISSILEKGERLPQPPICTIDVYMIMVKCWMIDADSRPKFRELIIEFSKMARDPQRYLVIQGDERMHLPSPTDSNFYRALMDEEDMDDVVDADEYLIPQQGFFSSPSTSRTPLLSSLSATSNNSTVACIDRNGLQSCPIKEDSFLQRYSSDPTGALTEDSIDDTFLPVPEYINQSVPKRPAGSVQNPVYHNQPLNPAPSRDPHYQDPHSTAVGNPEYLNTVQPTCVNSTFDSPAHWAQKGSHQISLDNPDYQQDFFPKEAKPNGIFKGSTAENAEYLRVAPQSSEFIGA
Experimental: as §1, §2

[2] = molecular target: T3, EGFR Del E746-A750 (PC9 cells) (Homo sapiens, UniProt P00533, DEL746-750); test: Inhibition of EGFR autophosphorylation (p-EGFR Y1068, western blot) in PC9 cells; format: cell-based; conditions: 3 h incubation, densitometry of western blots
T3 construct: endogenous in cells; host or cells: PC9 (Dr Olivier Pardo, Imperial College London)
T3 sequence (P00533 with tags, fused parts or gaps DEL746-750): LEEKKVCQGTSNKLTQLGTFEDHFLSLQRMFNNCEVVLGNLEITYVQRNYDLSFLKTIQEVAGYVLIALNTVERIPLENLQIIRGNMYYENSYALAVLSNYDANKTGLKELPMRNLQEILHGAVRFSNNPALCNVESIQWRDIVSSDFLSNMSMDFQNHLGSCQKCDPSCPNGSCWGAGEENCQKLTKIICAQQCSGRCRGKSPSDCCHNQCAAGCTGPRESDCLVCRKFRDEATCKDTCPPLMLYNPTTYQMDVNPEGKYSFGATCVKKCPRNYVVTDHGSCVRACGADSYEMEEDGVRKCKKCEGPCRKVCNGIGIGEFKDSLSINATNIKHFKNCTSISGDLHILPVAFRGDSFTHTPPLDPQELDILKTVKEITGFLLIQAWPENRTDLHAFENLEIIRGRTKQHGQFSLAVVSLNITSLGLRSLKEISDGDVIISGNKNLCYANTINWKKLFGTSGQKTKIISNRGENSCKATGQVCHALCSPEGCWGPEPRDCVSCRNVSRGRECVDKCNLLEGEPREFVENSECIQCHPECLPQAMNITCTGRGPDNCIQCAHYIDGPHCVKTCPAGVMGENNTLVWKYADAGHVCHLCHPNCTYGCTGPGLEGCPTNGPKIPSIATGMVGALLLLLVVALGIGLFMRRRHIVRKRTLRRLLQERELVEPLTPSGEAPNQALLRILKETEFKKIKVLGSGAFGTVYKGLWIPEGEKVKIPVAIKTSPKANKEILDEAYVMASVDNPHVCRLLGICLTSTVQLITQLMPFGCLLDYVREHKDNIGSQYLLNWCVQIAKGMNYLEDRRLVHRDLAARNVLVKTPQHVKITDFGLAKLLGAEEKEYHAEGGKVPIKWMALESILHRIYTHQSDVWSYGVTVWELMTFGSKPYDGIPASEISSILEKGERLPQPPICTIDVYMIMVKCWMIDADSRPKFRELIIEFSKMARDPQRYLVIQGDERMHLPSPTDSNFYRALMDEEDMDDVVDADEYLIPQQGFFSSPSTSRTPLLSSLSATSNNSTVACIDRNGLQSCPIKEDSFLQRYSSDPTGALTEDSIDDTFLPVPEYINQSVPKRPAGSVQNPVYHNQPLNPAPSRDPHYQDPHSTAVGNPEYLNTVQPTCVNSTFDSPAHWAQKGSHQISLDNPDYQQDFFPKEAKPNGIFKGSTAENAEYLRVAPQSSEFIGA
Experimental: as §1, §2

Caco2 transwell assay = format: in vitro ADME, human; conditions: human, Caco-2, no inhibitor; 10 μM cyanoquinoline or 50 μM vinblastine, 120 min; read-out: efflux ratio (Papp B-A / Papp A-B)
Experimental: (§3) The caco2 transwell assay was performed to assess permeability. Cells were seeded at a density of 60,000 cells per well in 24 well transwell plates (Millipore, Billerica, Massachutsetts, USA), and maintained in DMEM supplemented with […] glucose (20% FBS, 1% penicillin/streptomycin, 1% glutamine) for 21 days at 37°C in 5% CO2. After 21 days the cells differentiate into enterocytes and express all three MDR proteins, ABCB1 and ABCG2 at the apical side and ABCC1 on the basal side. On day 21, cells were washed three times with Hank's Balanced Salt Solution (HBSS) (Fisher scientific, Loughborough, UK) and the trans-epithelial electric resistance (TERR) was measured using an Epithelial Voltohmmeter (EVOM) (World Precision Instruments, Sarasota, USA); only transwells with TERR of 400 Ω/cm^2 or above were used for the experiment. Cells were treated either at the apical (n = 3) or basal (n = 3) side of the transwell by addition of 10 μM of cyanoquinoline compound or 50 μM vinblastine prepared in a volume of 400 μL HBSS (compound added to apical well) or 800 μL of HBSS (added to basal well). When transport inhibitors FTC (10 μM) or zosuquidar (0.3 μM) were used, they were added to both the apical and basal wells 1 h prior to drug treatment. After 1 h pre-treatment the medium was removed and cells were treated with the compounds prepared in HBSS containing FTC or Zosuquidar.
(§4) Plates were incubated in shaker incubator at 37°C and 60 rpm for 120 min. After incubation, 200 μL aliquots from the apical and the basal wells were collected and analysed using high performance liquid chromatography (HPLC). Samples were run on a Millipore Waters HPLC system which included a 717 plus autosampler and 2487 dual wavelength absorbance detector system. The stationary phase comprised of a Phenomenex Luna C18 reverse phase column (150 X 4.6 mm; 5 μm particle size). The mobile phase comprised water (0.1% TFA) and acetonitrile (0.1% TFA) (80:20 v/v) at a flow rate of 1 mL/min for all compounds except vinblastine. For vinblastine, the stationary phase comprised a Supelcosil LC-ABZ reverse phase column (5 × 4.6 mm; 5 μm particle size). The mobile phase comprised water (0.1% formic acid) and methanol (90:10 to 10:90 v/v gradient over 20 min). Peak areas corresponding to the compounds of interest were recorded. Using standard curves the areas under the curve were converted into concentrations of compound. The permeability coefficient (Papp) was calculated using the following equation [30]: Papp = (dQ/dt)/A C0, where A is the surface area of the transwell membrane in cm^2 (= 0.33 cm^2), C0 is the drug concentration in the donor chamber at time t = 0 and dQ/dt is the rate of transfer of the compound to the receiver chamber, determined from the slope of the graph concentration (dQ) versus time (dt). Papp values corresponding to absorption and secretion were assessed and used to calculate efflux ratio. Efflux ratio =(Papp B−A)/(Papp A−B) Where Papp A-B = Papp absorption and Papp B-A = Papp secretion.
(§5) The integrity of the caco2 cell membrane was assessed for each well following the experiment by addition of a 100 μM solution of […] (Sigma) in HBSS to the apical side of the plate. The plates were placed in the shaker incubator for 1 h at 37°C and 60 rpm. Samples from the basal wells were transferred into a 96 well plate and the levels of […] were assessed by measuring with an excitation of 450 nm and an emission of 540 nm using the PerkinElmer Wallac 1420 counter.

caco2 cells = test: Caco2 transwell assay; format: in vitro ADME, human; conditions: pre-treatment with zosuquidar
Experimental: as §3, §4, §5

EGFR = test system: EGFR; set-up: method as in PMID 20797871, PMID 24307532; conditions: cell-free; read-out: IC50 for inhibition of cell-free EGFR phosphorylation; cited from earlier work
[3] = molecular target: T4, EGFR Del E746-A750/T790M (PC9ER cells) (Homo sapiens, UniProt P00533, DEL746-750/T790M); test: Inhibition of EGFR autophosphorylation (p-EGFR Y1068, western blot) in PC9ER cells; format: cell-based
T4 construct: endogenous in cells; host or cells: PC9ER (Dr Olivier Pardo, Imperial College London)
T4 sequence (P00533 with tags, fused parts or gaps DEL746-750/T790M): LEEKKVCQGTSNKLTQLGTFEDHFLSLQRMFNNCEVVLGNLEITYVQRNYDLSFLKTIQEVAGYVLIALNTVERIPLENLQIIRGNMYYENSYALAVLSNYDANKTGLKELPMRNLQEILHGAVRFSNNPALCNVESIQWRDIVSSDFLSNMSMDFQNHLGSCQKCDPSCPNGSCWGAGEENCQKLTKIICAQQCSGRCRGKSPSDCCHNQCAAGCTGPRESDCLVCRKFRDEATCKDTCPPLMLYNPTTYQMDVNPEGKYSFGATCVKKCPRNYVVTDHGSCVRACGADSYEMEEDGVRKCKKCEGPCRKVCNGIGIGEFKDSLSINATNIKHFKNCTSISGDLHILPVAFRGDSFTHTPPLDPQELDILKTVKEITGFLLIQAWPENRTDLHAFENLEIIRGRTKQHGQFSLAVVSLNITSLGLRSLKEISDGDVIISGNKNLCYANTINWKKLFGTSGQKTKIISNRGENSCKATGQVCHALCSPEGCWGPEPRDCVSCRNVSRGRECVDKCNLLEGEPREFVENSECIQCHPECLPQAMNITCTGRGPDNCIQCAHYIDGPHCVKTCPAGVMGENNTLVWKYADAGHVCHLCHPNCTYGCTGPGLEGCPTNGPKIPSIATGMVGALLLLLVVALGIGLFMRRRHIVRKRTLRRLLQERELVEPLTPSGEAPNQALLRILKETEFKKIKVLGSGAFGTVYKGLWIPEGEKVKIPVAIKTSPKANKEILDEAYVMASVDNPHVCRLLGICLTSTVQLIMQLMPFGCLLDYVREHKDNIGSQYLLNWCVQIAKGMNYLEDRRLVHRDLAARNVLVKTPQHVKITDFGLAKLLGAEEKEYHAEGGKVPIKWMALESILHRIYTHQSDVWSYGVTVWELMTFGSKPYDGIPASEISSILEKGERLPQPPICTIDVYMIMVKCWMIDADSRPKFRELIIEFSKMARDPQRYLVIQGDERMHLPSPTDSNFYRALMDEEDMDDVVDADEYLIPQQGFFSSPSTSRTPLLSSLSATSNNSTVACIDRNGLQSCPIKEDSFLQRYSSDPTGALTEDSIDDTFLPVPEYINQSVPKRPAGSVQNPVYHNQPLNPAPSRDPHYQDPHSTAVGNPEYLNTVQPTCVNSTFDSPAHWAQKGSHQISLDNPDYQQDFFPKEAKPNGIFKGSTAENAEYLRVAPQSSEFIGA
Experimental: as §1
Cells were collected into a microcentrifuge tube and sonicated for 30 seconds on ice. Cellular protein levels were assessed using a bicinchoninic acid (BCA) protein assay kit according to the manufacturer’s instructions (Thermo scientific). […] Samples were transferred to polyvinylidene difluoride (PVDF) membrane using Trans-Blot Turbo system BIO-RAD (Hercules, California, USA). […] The membranes were then incubated overnight with primary antibody prepared in 1% milk or 1% BSA in TBST. […] Membranes were washed a further three times for 10 minutes with TBST. Blots were visualised using chemoluminescence (ECL, GE Healthcare, Little Chalfont, UK) and developed on Amersham Hyperfilm ECL (GE Healthcare). β-Actin was used as a loading control.

cells = test: Cell uptake assay, overall magnitude of uptake; format: cell-based
Experimental: (§6) [^18F]FED6 and [^18F]FED20 were synthesised as previously reported. To increase specific radioactivity of [^18F]FED20, we modified the synthesis by decreasing the amount of alkyne precursor from 1 mg down to 0.5 mg. While this had the desired effect of increasing the specific activity from 7.3 GBq/μmol up to 52 GBq/μmol, the conversion of the alkyne to the triazole product dropped from > 95% down to 45%. Cells were seeded in 6 well plates and [^18F]FED6 (0.22 MBq) or [^18F]FED20 (0.55 MBq or 0.74 MBq) added to each well and incubated at 37°C for 1 h. Media were then removed and cells were washed twice with PBS. The cells were trypsinised and centrifuged for 3 minutes at 2000 rpm to obtain a pellet. The cell pellet was washed once with PBS and resuspended in 200 μL of RIPA buffer. Cell lysates were transferred to gamma counting tubes and the radioactivity in the pellet was measured on a Packard Cobra II gamma counter, (Perkin-Elmer, Waltham, Massachusetts, USA). Protein concentrations of samples were evaluated using Pierce® BCA Protein Assay Kit (Thermo Scientific, Waltham, Massachusetts, USA). Data were expressed as background- and decay-corrected counts per minute (CCPMA) per μg of cellular protein.

PC9 and PC9ER cells = test: Cell uptake assay in PC9 versus PC9ER cells; format: cell-based; conditions: 1 h incubation
Experimental: as §6

Row | IC50 [1] [µM] | IC50 (EGFR L858R (H3255 cells)) [nM] | IC50 [2] [nM] | efflux ratio at 120 min (Caco2 transwell assay) | efflux (permeability) ratio after pre-treatment with zosuquidar (caco2 cells) | IC50 ([3]; 3 h incubation, densitometry of western blots) [nM] | fold higher IC50 (p-EGFR) in PC9ER compared to PC9 ([3]; PC9ER versus isogenic PC9) [fold] | SMILES | IC50 (EGFR) [nM] | fold lower magnitude of uptake than [^18F]FED6 (cells) [fold] | fold higher uptake in PC9 compared to PC9ER cells (PC9 and PC9ER cells) [fold]
1 | 7.1 | 300 | 300 | 1.3 | did not have any effect | 700 | 2 | CCOc1cc2ncc(C#N)c(Nc3ccc(F)c(Cl)c3)c2cc1NC(=O)/C=C/CNCc1cn([C@@H]2OC(CO)[C@@H](O)C(O)C2F)nn1 (stereo partly drawn) [FED20, (2E)-N-{4-[(3-chloro-4-fluorophenyl)amino]-3-cyano-7-ethoxyquinolin-6-yl}-4-[({1-[(2R,5S)-3-fluoro-4,5-dihydroxy-6-(hydroxymethyl)oxan-2-yl]-1H-1,2,3-triazol-4-yl}methyl)amino]but-2-enamide] | 4.5 |  | 
2 |  |  |  |  |  |  |  | CCOc1cc2ncc(C#N)c(Nc3ccc(F)c(Cl)c3)c2cc1NC(=O)/C=C/CNCc1cn([C@@H]2OC(CO)[C@@H](O)C(O)C2[18F])nn1 (stereo partly drawn) [[^18F]FED20, [^18F](2E)-N-{4-[(3-chloro-4-fluorophenyl)amino]-3-cyano-7-ethoxyquinolin-6-yl}-4-[({1-[(2R,5S)-3-fluoro-4,5-dihydroxy-6-(hydroxymethyl)oxan-2-yl]-1H-1,2,3-triazol-4-yl}methyl)amino]but-2-enamide] |  | > 5 | 2
